Source: the NIST ThermoML archive (doi:10.1016/j.jct.2008.02.004)
Numbers after ± are expanded uncertainties.

Assay: molar enthalpy of vaporization or sublimation
Settings: 298.15 K; Liquid; calvet microcalorimetry

Row | SMILES | molar enthalpy [kJ/mol]
1 | Cc1ccc(C=O)s1 [5-methyl-2-thiophenecarbaldehyde] | 56.2 ± 2.4
2 | CCc1ccc(C=O)s1 [2-thiophenecarboxaldehyde, 5-ethyl-] | 62.2 ± 2.6
3 | Cc1ccsc1C=O [3-methyl-2-thiophenecarboxaldehyde] | 57.7 ± 2.6

Further lines, results first:

Row | molar enthalpy [kJ/mol] | SMILES
4 | 52.6 ± 2.4 | O=Cc1ccsc1 [3-formylthiophene]
5 | 54.9 ± 2.2 | O=Cc1cccs1 [2-thiophenealdehyde]
